Laboratory results reported in patent US4742049A, “Semisynthetic erythromycin antibiotics” (Abbott Laboratories, priority 1986, dated 1988).
Values after ≈ are worked out from the molar mass of the structure shown. Values joined by “and” are separate entries in the source; they are usually repeats but may differ in a detail not shown here. Equal values may be shown once. Read-outs that look alike come from different tables or passages of the source.

Tests used:
[1] = system: Klebsiella pneumoniae; experiment: antimicrobial spectrum, agar dilution MIC; assay type: cell-based; conditions: strain 8045, BHI agar, 20-24 hours
[2] = system: Pseudomonas cepacia; experiment: antimicrobial spectrum, agar dilution MIC; assay type: cell-based; conditions: strain 2961, BHI agar, 20-24 hours
Experimental: Erythromycin A was used for this purpose.
After incubation, each disk is read.

[3] = system: Staph. aureus NCTC 10649; experiment: acute mouse protection test; conditions: for ED50: Staphylococcus aureus, NCTC10649, in Mus musculus, 168 h, dosed 1 and 5 hours post-infection, observed 7 days; for # Died: ten mice
Experimental: The acute mouse protection test is conducted on ten mice with each of three levels of drug.
The acute mouse protection test is conducted on female, Swiss albino mice, 18-20 grams in weight. The mice are injected intraperitoneally with an 18-hour culture of the indicated test organism diluted sufficiently to provide the desired LD50 value. To check the potency of the inoculum, a titration of the indicated test organism is carried out in control animals. […] The ED50 values are calculated using the mortality data collected.

[4] = system: Staph. saprophyticus; experiment: microbe, parasite or virus in culture; conditions: Staphylococcus saprophyticus, ATCC15305
Experimental: (§1) Twelve petri dishes containing successive aqueous dilutions of the test compound mixed with 10 ml of sterilized Brain Heart Infusion agar (Difco 0418-01-5) are prepared. Each plate is inoculated with 1:100 (or 1:10 for slow-growing strains, primarily Micrococcus and Streptococcus) dilutions of up to 32 different microorganisms, using a Steers replicator block. The inoculated plates are incubated at 35°-37° C. for 20-24 hours. In addition, a control plate, using BHI agar containing no test compound, is prepared and incubated at the beginning and end of each test.
(§2) An additional plate containing a compound having known susceptibility patterns for the organisms being tested and belonging to the same antibiotic class as the test compound is also prepared and incubated as a further control, as well as to provide test-to-test comparability.
(§3) After incubation, each disk is read. The MIC is defined as the lowest concentration of drug yielding no growth, a slight haze, or sparsely isolated colonies on the inoculum spot as compared to the growth control.

[5] = system: Ent. aerogenes; experiment: antimicrobial spectrum, agar dilution MIC; assay type: cell-based
[6] = system: Strep. faecalis; experiment: antimicrobial spectrum, agar dilution MIC; assay type: cell-based; conditions: Enterococcus faecalis, BHI agar, 20-24 hours
Experimental: as §1, §2, §3

[7] = system: Providencia stuartii; experiment: antimicrobial spectrum, agar dilution MIC; assay type: cell-based; conditions: strain CMX 640, BHI agar, 20-24 hours
Experimental: as §1, §2, §3

[8] = system: Strep. agalactiae; experiment: antimicrobial spectrum, agar dilution MIC; assay type: cell-based; conditions: Streptococcus agalactiae; strain CMX 633; BHI agar, 20-24 hours; read-out: MIC
Experimental: as §1, §2, §3

[9] = system: Strep. bovis; experiment: antimicrobial spectrum, agar dilution MIC; assay type: cell-based; conditions: Streptococcus equinus, strain A5169; BHI agar, 20-24 hours; read-out: MIC
Experimental: as §1, §2, §3

[10] = system: Strep. pyogenes; experiment: antimicrobial spectrum, agar dilution MIC; assay type: cell-based; conditions: BHI agar, 20-24 hours
Experimental: as §1, §2, §3

[11] = system: Staph. aureus; experiment: antimicrobial spectrum, agar dilution MIC; assay type: cell-based; conditions: Staphylococcus aureus, BHI agar, 20-24 hours
Experimental: as §1, §2, §3

[12] = system: Strep. pneumoniae; experiment: antimicrobial spectrum, agar dilution MIC; assay type: cell-based; conditions: Streptococcus pneumoniae, BHI agar, 20-24 hours
Experimental: as §1, §2, §3

[13] = system: Pseudomonas aeruginosa; experiment: antimicrobial spectrum, agar dilution MIC; assay type: cell-based; conditions: BHI agar, 20-24 hours
Experimental: as §1, §2, §3

[14] = system: Staph. epidermidis; experiment: antimicrobial spectrum, agar dilution MIC; assay type: cell-based; conditions: Staphylococcus epidermidis, BHI agar, 20-24 hours
Experimental: as §1, §2, §3

[15] = system: Strep. faecium; experiment: antimicrobial spectrum, agar dilution MIC; assay type: cell-based; conditions: Enterococcus faecium, BHI agar, 20-24 hours
Experimental: as §1, §2, §3

[16] = system: Micrococcus luteus; experiment: antimicrobial spectrum, agar dilution MIC; assay type: cell-based; conditions: strain 4698, BHI agar, 20-24 hours

Q: For CC[C@H]1OC(=O)[C@H](C)[C@@H](O[C@H]2C[C@@](C)(OC)[C@@H](O)[C@H](C)O2)[C@H](C)[C@@H](O[C@@H]2O[C@H](C)C[C@H](N(C)C)[C@H]2O)[C@](C)(O)C[C@@H](C)C(=O)[C@H](C)[C@@H](O)[C@]1(C)O [Erythromycin A], which MIC [1] is on record?
A: 50 µg/mL (≈ 68.1 µM)

Q: What about the MIC ([2]; Burkholderia cepacia, read-out: MIC) of the same compound?
A: 200 µg/mL (≈ 273 µM)

Q: What about the MIC [2] of the same compound?
A: > 100 µg/mL

Q: What about the ED50 ([3]; po, dosage medium Carboxymethylcellulose) of the same compound?
A: 48.8 mg/kg

Q: What about the ED50 ([3]; po, dosage medium PBS) of the same compound?
A: 75.7 mg/kg

Q: And the ED50 ([3]; sc, subcutaneous, dosage medium Injectable solution)?
A: 10.9 mg/kg

Q: And the “# Died” value ([3]; oral, Carboxymethylcellulose, 15.6 mg/kg)?
A: 8

Q: And the “# Died” value ([3]; oral, Carboxymethylcellulose, 37.5 mg/kg)?
A: 5

Q: What about the “# Died” value ([3]; oral, Carboxymethylcellulose, 250.0 mg/kg) of the same compound?
A: 0

Q: And the “# Died” value ([3]; oral, PBS, 15.6 mg/kg)?
A: 10

Q: And the “# Died” value ([3]; oral, PBS, 37.5 mg/kg)?
A: 4

Q: What about the “# Died” value ([3]; oral, PBS, 250.0 mg/kg) of the same compound?
A: 0

Q: And the “# Died” value ([3]; subcutaneous, Injectable solution, 2.5 mg/kg)?
A: 10

Q: What about the “# Died” value ([3]; subcutaneous, Injectable solution, 10.0 mg/kg) of the same compound?
A: 6

Q: What about the “# Died” value ([3]; subcutaneous, Injectable solution, 40.0 mg/kg) of the same compound?
A: 0

Q: And the MIC [4]?
A: 0.03 µg/mL (≈ 0.0409 µM)

Q: And the MIC ([5]; Klebsiella aerogenes, ATCC10348)?
A: 100 µg/mL (≈ 136 µM)

Q: And the MIC ([5]; Klebsiella aerogenes, ATCC13048, strain ATCC 13048, BHI agar, 20-24 hours, read-out: MIC)?
A: 50 µg/mL (≈ 68.1 µM)

Q: And the MIC ([5]; strain ATCC 10348, BHI agar, 20-24 hours)?
A: 50 µg/mL (≈ 68.1 µM)

Q: What about the MIC ([6]; strain CMX 663F) of the same compound?
A: 2 µg/mL (≈ 2.73 µM)

Q: And the MIC ([6]; strain CMX 729G)?
A: 0.5 µg/mL (≈ 0.681 µM)

Q: What about the MIC ([6]; strain CMX 736F) of the same compound?
A: 0.5 µg/mL (≈ 0.681 µM)

Q: And the MIC ([6]; strain GYR 1164)?
A: 0.5 µg/mL (≈ 0.681 µM)

Q: What about the MIC ([6]; strain GYR 1166) of the same compound?
A: 0.5 µg/mL (≈ 0.681 µM)

Q: And the MIC ([6]; strain GYR 1167)?
A: 4 µg/mL (≈ 5.45 µM)

Q: What about the MIC [7] of the same compound?
A: > 100 µg/mL

Q: What about the MIC ([7]; read-out: MIC) of the same compound?
A: > 200 µg/mL

Q: And the MIC [8]?
A: 0.015 µg/mL (≈ 0.0204 µM)

Q: And the MIC [9]?
A: 0.01 µg/mL (≈ 0.0136 µM)

Q: And the MIC ([10]; Streptococcus pyogenes, strain 930, read-out: MIC)?
A: > 200 µg/mL

Q: What about the MIC ([10]; Streptococcus pyogenes, strain C203, read-out: MIC) of the same compound?
A: 0.002 µg/mL (≈ 0.00273 µM)

Q: What about the MIC ([10]; Streptococcus pyogenes, strain EES61, read-out: MIC) of the same compound?
A: 0.06 µg/mL (≈ 0.0818 µM)

Q: What about the MIC ([10]; Streptococcus pyogenes, strain M79061-98) of the same compound?
A: 1 µg/mL (≈ 1.36 µM)

Q: And the MIC ([10]; Streptococcus pyogenes, strain M79061-139, read-out: MIC)?
A: 0.015 µg/mL (≈ 0.0204 µM)

Q: What about the MIC ([10]; Streptococcus pyogenes, strain M79061-140, read-out: MIC) of the same compound?
A: 0.008 µg/mL (≈ 0.0109 µM)

Q: What about the MIC ([10]; strain 930) of the same compound?
A: > 100 µg/mL

Q: What about the MIC ([11]; ATCC6538P, strain ATCC 6538P, read-out: MIC) of the same compound?
A: 0.12 µg/mL (≈ 0.164 µM)

Q: What about the MIC ([11]; ATCC25923, strain ATCC 25923, read-out: MIC) of the same compound?
A: 0.06 µg/mL (≈ 0.0818 µM)

Q: What about the MIC ([11]; NCTC10649, strain NCTC 10649, read-out: MIC) of the same compound?
A: 0.06 µg/mL (≈ 0.0818 µM)

Q: What about the MIC ([11]; strain 45 RAR 2) of the same compound?
A: 0.2 µg/mL (≈ 0.273 µM)

Q: What about the MIC ([11]; strain 642A, read-out: MIC) of the same compound?
A: 0.12 µg/mL (≈ 0.164 µM)

Q: And the MIC ([11]; strain A5177, read-out: MIC)?
A: 0.78 µg/mL (≈ 1.06 µM)

Q: What about the MIC ([11]; strain CMX 686B, read-out: MIC) of the same compound?
A: 0.12 µg/mL (≈ 0.164 µM)

Q: And the MIC ([11]; strain CMX 705, read-out: MIC)?
A: 0.06 µg/mL (≈ 0.0818 µM)

Q: What about the MIC ([11]; strain CMX 730A, read-out: MIC) of the same compound?
A: 0.06 µg/mL (≈ 0.0818 µM)

Q: And the MIC ([11]; strain CMX 739A, read-out: MIC)?
A: 0.06 µg/mL (≈ 0.0818 µM)

Q: And the MIC ([11]; strain GYR 1150, read-out: MIC)?
A: 0.06 µg/mL (≈ 0.0818 µM)

Q: And the MIC ([11]; strain GYR 1162, read-out: MIC)?
A: 0.06 µg/mL (≈ 0.0818 µM)

Q: What about the MIC ([12]; strain 78-008107) of the same compound?
A: 32 µg/mL (≈ 43.6 µM)

Q: And the MIC ([12]; strain CMX 635, read-out: MIC)?
A: 0.015 µg/mL (≈ 0.0204 µM)

Q: What about the MIC ([12]; strain CMX 698, read-out: MIC) of the same compound?
A: 0.008 µg/mL (≈ 0.0109 µM)

Q: What about the MIC ([13]; Pseudomonas aeruginosa, strain 5007) of the same compound?
A: 200 µg/mL (≈ 273 µM)

Q: What about the MIC ([13]; Pseudomonas aeruginosa, strain BMH10) of the same compound?
A: 100 µg/mL (≈ 136 µM)

Q: What about the MIC ([13]; Pseudomonas aeruginosa, strain K799/61) of the same compound?
A: 1.56 µg/mL (≈ 2.13 µM)

Q: And the MIC ([13]; Pseudomonas aeruginosa, strain K799/WT)?
A: 200 µg/mL (≈ 273 µM)

Q: What about the MIC ([13]; strain 5007) of the same compound?
A: > 100 µg/mL

Q: And the MIC ([13]; strain K799/WT)?
A: > 100 µg/mL and 100 µg/mL

Q: And the MIC ([14]; strain 3519, read-out: MIC)?
A: 0.21 µg/mL (≈ 0.286 µM)

Q: And the MIC ([14]; strain 3519 RARI)?
A: 0.2 µg/mL (≈ 0.273 µM)

Q: And the MIC ([14]; strain CMX 728, read-out: MIC)?
A: 0.06 µg/mL (≈ 0.0818 µM)

Q: And the MIC ([14]; strain GYR 1151, read-out: MIC)?
A: 0.12 µg/mL (≈ 0.164 µM)

Q: What about the MIC ([15]; ATCC8043, strain ATCC 8043) of the same compound?
A: 0.1 µg/mL (≈ 0.136 µM)

Q: And the MIC ([15]; ATCC8043, strain ATCC 8043, read-out: MIC)?
A: 0.06 µg/mL (≈ 0.0818 µM)

Q: And the MIC [16]?
A: 0.1 µg/mL (≈ 0.136 µM)
